Source: patent EP2198878A1, “Polypeptide bombesin antagonists” (University Of Miami, priority 2008, dated 2010)
Peptide text beside a SMILES is read from it. * marks the point of attachment. Leuψ(CH2N)ThzNH2 = CC(C)C[C@@H](CN1CSC[C@H]1C(N)=O)N*; Hydrocinnamoyl = O=C(CCc1ccccc1)*

Tested on: Human SK-Hep-1 cancers
Test: SK-Hep-1 human hepatocellular carcinoma xenograft in nude mice
Format: in vivo, mouse
Conditions: at therapeutic doses
Description: Human SK-Hep-1 cancers were transplanted sc. into both flank areas of female nude mice. The treatment started 47 days after transplantation as follows: Group 1: Control; Group 2: Peptide 14, 20 µg/day;. There were 8 animals in each group. The substances were dissolved in 0.1% dimethyl sulfoxide (DMSO) and diluted with 10% propylene glycol in water. Amounts of 0.1 ml of the solutions were injected once daily sc. The controls received vehicle only. Tumors and body weights were measured weekly and tumor volume was calculated. The experiment was terminated on day 135.

CC(C)C[C@@H](CN1CSC[C@H]1C(N)=O)NC(=O)[C@H](Cc1c[nH]cn1)NC(=O)CNC(=O)[C@@H](NC(=O)[C@H](C)NC(=O)[C@H](Cc1c[nH]c2ccccc12)NC(=O)[C@H](CCC(N)=O)NC(=O)CCc1ccccc1)C(C)C [Peptide 14, Hca-Gln-Trp-Ala-Val-Gly-His-Leu-ψ-Tac-NH2] (Hydrocinnamoyl-QWAVGH-{Leuψ(CH2N)ThzNH2})
toxic effects: no toxic effects
